Results published in ChEMBL document CHEMBL5380858 (J Med Chem, 2023).
The source made the active and inactive calls. The calls are words filed in the database; no cut-off is given here.

Key:
[1] = test system: SARS-CoV-2; type: functional, organism-based; conditions: Severe acute respiratory syndrome coronavirus 2; MA10; dose 60.0 mg/kg, route po, time 3-5 day
[2] = test system: SARS-CoV-2; type: functional, organism-based; conditions: Severe acute respiratory syndrome coronavirus 2; MA10; dose 30.0 mg/kg, route po, time 2-5 day
[3] = test system: SARS-CoV-2; type: functional, organism-based; conditions: Severe acute respiratory syndrome coronavirus 2; MA10; dose 30.0 mg/kg, route po, time 2-5 day; remark: listed apart in the source
[4] = test system: SARS-CoV-2; type: functional, organism-based; conditions: Severe acute respiratory syndrome coronavirus 2; MA10; dose 60.0 mg/kg, route po, time 2-5 day
[5] = test system: SARS-CoV-2; type: functional, organism-based; conditions: Severe acute respiratory syndrome coronavirus 2; MA10; dose 60.0 mg/kg, route po, time 5.0 day
[6] = test system: SARS-CoV-2; type: functional, organism-based; conditions: Severe acute respiratory syndrome coronavirus 2; MA10; dose 30.0 mg/kg, route po, time 2-5 day; remark: listed apart in the source
[7] = test system: SARS-CoV-2; type: functional, organism-based; conditions: Severe acute respiratory syndrome coronavirus 2; MA10; dose 30.0 mg/kg, route po, time 2-5 day; remark: listed apart in the source
[8] = test system: SARS-CoV-2; type: functional, organism-based; conditions: Severe acute respiratory syndrome coronavirus 2; MA10; dose 60.0 mg/kg, route po, time 2-5 day; remark: listed apart in the source
[9] = test system: SARS-CoV-2; type: functional, organism-based; conditions: Severe acute respiratory syndrome coronavirus 2; MA10; dose 60.0 mg/kg, route po, time 2-5 day; remark: listed apart in the source
[10] = test system: SARS-CoV-2; type: functional, organism-based; conditions: Severe acute respiratory syndrome coronavirus 2; MA10; dose 30.0 mg/kg, route po, time 2-5 day; remark: listed apart in the source
[11] = test system: SARS-CoV-2; type: functional, organism-based; conditions: Severe acute respiratory syndrome coronavirus 2; MA10; dose 30.0 mg/kg, route po, time 2-5 day; remark: listed apart in the source
[12] = test system: SARS-CoV-2; type: functional, organism-based; conditions: Severe acute respiratory syndrome coronavirus 2; MA10; dose 60.0 mg/kg, route po, time 2-5 day; remark: listed apart in the source
[13] = test system: SARS-CoV-2; type: functional, organism-based; conditions: Severe acute respiratory syndrome coronavirus 2; MA10; dose 60.0 mg/kg, route po, time 2-5 day; remark: listed apart in the source
[14] = test system: SARS-CoV-2; type: functional, organism-based; conditions: Severe acute respiratory syndrome coronavirus 2; MA10; Pneumocyte; dose 30.0 mg/kg, route po, time 2-5 day
[15] = test system: SARS-CoV-2; type: functional, organism-based; conditions: Severe acute respiratory syndrome coronavirus 2; MA10; Pneumocyte; dose 30.0 mg/kg, route po, time 2-5 day; remark: listed apart in the source
[16] = test system: SARS-CoV-2; type: functional, organism-based; conditions: Severe acute respiratory syndrome coronavirus 2; MA10; Pneumocyte; dose 60.0 mg/kg, route po, time 2-5 day
[17] = test system: SARS-CoV-2; type: functional, organism-based; conditions: Severe acute respiratory syndrome coronavirus 2; MA10; Pneumocyte; dose 60.0 mg/kg, route po, time 2-5 day; remark: listed apart in the source
[18] = test system: SARS-CoV-2; type: functional, organism-based; conditions: Severe acute respiratory syndrome coronavirus 2; MA10; dose 30.0 mg/kg, route po, time 2-5 day; remark: listed apart in the source
[19] = test system: SARS-CoV-2; type: functional, organism-based; conditions: Severe acute respiratory syndrome coronavirus 2; MA10; dose 30.0 mg/kg, route po, time 2-5 day; remark: listed apart in the source
[20] = test system: SARS-CoV-2; type: functional, organism-based; conditions: Severe acute respiratory syndrome coronavirus 2; MA10; dose 60.0 mg/kg, route po, time 2-5 day; remark: listed apart in the source
[21] = test system: SARS-CoV-2; type: functional, organism-based; conditions: Severe acute respiratory syndrome coronavirus 2; MA10; dose 60.0 mg/kg, route po, time 2-5 day; remark: listed apart in the source
[22] = test system: SARS-CoV-2; type: functional, organism-based; conditions: Severe acute respiratory syndrome coronavirus 2; MA10; dose 30.0 mg/kg, route po, time 2-5 day; remark: listed apart in the source
[23] = test system: SARS-CoV-2; type: functional, organism-based; conditions: Severe acute respiratory syndrome coronavirus 2; MA10; dose 30.0 mg/kg, route po, time 2-5 day; remark: listed apart in the source
[24] = test system: SARS-CoV-2; type: functional, organism-based; conditions: Severe acute respiratory syndrome coronavirus 2; MA10; dose 60.0 mg/kg, route po, time 2-5 day; remark: listed apart in the source
[25] = test system: SARS-CoV-2; type: functional, organism-based; conditions: Severe acute respiratory syndrome coronavirus 2; MA10; dose 60.0 mg/kg, route po, time 2-5 day; remark: listed apart in the source
[26] = test system: SARS-CoV-2; type: functional, organism-based; conditions: Severe acute respiratory syndrome coronavirus 2; MA10; dose 30.0 mg/kg, route po, time 2.0 day
[27] = test system: SARS-CoV-2; type: functional, organism-based; conditions: Severe acute respiratory syndrome coronavirus 2; MA10; dose 30.0 mg/kg, route po, time 5.0 day
[28] = test system: SARS-CoV-2; conditions: dose 60 mg/kg; route po; time 2 day
[29] = test system: SARS-CoV-2; conditions: dose 30 mg/kg; route po; time 5 day
[30] = test system: SARS-CoV-2; conditions: dose 30 mg/kg; route po; time 5 day; remark: listed apart in the source
[31] = test system: SARS-CoV-2; conditions: dose 60 mg/kg; route po; time 5 day
[32] = test system: SARS-CoV-2; conditions: dose 30 mg/kg; route po; time 4 day
[33] = test system: SARS-CoV-2; conditions: dose 60 mg/kg; route po; time 4 day
[34] = test system: SARS-CoV-2; conditions: dose 60 mg/kg; route po; time 4 day; remark: listed apart in the source
[35] = test system: SARS-CoV-2; conditions: dose 30 mg/kg; route po; time 4 day; remark: listed apart in the source

## CCCCCCCCCCCCCCCCCCOC[C@H](COP(=O)(O)OC[C@H]1O[C@@](C#N)(c2ccc3c(N)ncnn23)[C@H](O)[C@@H]1O)OCc1ccccc1
[1]
  Activity: Active
[2]
  Activity: inactive
[3]
  Activity: inactive
[4]
  Activity: inactive
[5]
  Activity: Active
[6]
  Activity: inactive
[7]
  Activity: inactive
[8]
  Activity: inactive
[9]
  Activity: inactive
[10]
  Activity: inactive
[11]
  Activity: inactive
[12]
  Activity: inactive
[13]
  Activity: inactive
[14]
  Activity: inactive
[15]
  Activity: inactive
[16]
  Activity: inactive
[17]
  Activity: inactive
[18]
  Activity: inactive
[19]
  Activity: inactive
[20]
  Activity: inactive
[21]
  Activity: inactive
[22]
  Activity: inactive
[23]
  Activity: inactive
[24]
  Activity: inactive
[25]
  Activity: inactive
[26]
  Activity: Active
[27]
  Activity: inactive
[28]
  log(activity): 1.52
[29]
  log(activity): >2.14
[30]
  log(activity): >2.14
[31]
  log(activity): >2.14

## CC(C)C(=O)OC[C@H]1O[C@@H](n2cc/c(=N\O)[nH]c2=O)[C@H](O)[C@@H]1O [MOLNUPIRAVIR]
[32]
  log(activity): 2.1
[33]
  log(activity): 2.9
[34]
  log(activity): 2.6

## CC(C)C(=O)OC[C@H]1O[C@@](C#N)(c2ccc3c(N)ncnn23)[C@H](OC(=O)C(C)C)[C@@H]1OC(=O)C(C)C
[34]
  log(activity): >2.9
[35]
  log(activity): >2.9
